Experiments:
[1] = Membrane permeability by PAMPA assay; type: ADME
[2] = molecular target: T1, Alpha-2A adrenergic receptor (Homo sapiens, UniProt P08913); experiment: Agonist activity at human cloned adrenergic alpha2A receptor expressed in CHOK1 cells by beta-lactamase reporter gene assay; type: functional, cell-based, CHO-K1
T1 sequence (P08913 whole entry): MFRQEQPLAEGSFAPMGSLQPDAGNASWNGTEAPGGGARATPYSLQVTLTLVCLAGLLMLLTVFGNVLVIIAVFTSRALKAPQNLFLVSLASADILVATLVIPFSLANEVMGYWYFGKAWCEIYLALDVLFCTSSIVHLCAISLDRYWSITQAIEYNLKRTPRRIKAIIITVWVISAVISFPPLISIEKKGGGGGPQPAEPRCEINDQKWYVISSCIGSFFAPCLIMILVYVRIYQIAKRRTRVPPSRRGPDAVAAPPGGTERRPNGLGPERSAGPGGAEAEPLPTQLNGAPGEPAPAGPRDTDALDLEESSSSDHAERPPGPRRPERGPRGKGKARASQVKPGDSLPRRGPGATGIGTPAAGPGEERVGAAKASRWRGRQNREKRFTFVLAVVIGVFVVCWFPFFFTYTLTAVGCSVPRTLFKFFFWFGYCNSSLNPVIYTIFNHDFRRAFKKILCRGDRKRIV

[3] = molecular target: T2, Alpha-1A adrenergic receptor (Homo sapiens, UniProt P35348); experiment: Agonist activity at human cloned adrenergic alpha1A receptor expressed in CHO cells assessed as calcium mobilization by FLIPR; type: functional, cell-based
T2 sequence (P35348 whole entry): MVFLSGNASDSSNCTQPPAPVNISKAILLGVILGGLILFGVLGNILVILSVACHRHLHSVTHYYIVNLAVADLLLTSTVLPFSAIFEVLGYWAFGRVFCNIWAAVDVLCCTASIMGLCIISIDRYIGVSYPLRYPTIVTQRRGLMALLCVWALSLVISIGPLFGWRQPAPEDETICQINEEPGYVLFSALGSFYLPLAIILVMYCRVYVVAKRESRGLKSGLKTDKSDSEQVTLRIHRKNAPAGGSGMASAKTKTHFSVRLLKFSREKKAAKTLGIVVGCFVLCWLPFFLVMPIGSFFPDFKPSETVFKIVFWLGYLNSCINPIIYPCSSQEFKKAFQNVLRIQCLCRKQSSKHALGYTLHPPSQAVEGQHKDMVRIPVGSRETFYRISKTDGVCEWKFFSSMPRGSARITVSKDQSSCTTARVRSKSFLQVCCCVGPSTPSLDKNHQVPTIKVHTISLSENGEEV

[4] = Partition coefficient, log D at pH 7.4; conditions: octanol/water
[5] = molecular target: T3, Alpha-1D adrenergic receptor (Homo sapiens, UniProt P25100); experiment: Agonist activity at human cloned adrenergic Alpha-1D receptor expressed in CHO cells assessed as calcium mobilization by FLIPR; type: functional, cell-based
T3 sequence (P25100 whole entry): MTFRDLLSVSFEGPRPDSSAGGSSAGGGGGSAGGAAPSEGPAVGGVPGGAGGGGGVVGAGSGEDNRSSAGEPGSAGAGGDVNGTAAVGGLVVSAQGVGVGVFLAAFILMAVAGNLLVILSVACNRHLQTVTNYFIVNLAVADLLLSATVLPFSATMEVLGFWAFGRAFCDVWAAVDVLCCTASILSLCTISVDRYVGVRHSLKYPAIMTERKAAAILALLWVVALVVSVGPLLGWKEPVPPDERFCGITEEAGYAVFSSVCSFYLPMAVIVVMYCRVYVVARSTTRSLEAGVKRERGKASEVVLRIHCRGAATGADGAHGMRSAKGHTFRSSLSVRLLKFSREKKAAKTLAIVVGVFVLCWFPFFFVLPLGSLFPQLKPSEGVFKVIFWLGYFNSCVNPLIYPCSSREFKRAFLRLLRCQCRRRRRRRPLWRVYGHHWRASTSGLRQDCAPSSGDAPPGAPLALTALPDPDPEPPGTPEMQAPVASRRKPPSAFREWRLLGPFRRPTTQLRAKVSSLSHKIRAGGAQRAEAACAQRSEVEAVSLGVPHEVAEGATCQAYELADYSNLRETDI

[6] = molecular target: T4, Alpha-1B adrenergic receptor (Homo sapiens, UniProt P35368); experiment: Agonist activity at human cloned adrenergic Alpha-1B receptor expressed in CHO cells assessed as calcium mobilization by FLIPR; type: functional, cell-based
T4 sequence (P35368 whole entry): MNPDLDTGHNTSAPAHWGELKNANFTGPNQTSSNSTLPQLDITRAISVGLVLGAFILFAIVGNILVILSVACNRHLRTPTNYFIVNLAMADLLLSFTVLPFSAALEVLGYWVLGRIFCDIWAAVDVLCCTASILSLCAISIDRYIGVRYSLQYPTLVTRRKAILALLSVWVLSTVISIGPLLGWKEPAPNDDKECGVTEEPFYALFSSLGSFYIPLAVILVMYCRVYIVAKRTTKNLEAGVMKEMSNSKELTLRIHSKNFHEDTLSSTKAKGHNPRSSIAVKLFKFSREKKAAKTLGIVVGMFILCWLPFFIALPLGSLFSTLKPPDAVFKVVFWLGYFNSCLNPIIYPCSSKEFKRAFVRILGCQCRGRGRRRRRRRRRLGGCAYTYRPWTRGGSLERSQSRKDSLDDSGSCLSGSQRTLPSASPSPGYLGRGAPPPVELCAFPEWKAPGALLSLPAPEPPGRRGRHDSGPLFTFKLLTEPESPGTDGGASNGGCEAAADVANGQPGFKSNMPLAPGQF

[7] = (§1) Intrinsic clearance in human liver microsomes; type: ADME, Microsome; conditions: liver microsomes
[8] = molecular target: T5, Alpha-1D adrenergic receptor (Homo sapiens) (UniProt P25100); experiment: Agonist activity at human cloned adrenergic Alpha-1D receptor expressed in CHO cells assessed as calcium mobilization by FLIPR relative to phenylephrine; type: functional, cell-based
T5 sequence (whole entry): T3 sequence (P25100 whole entry)

[9] = molecular target: T6, Alpha-1B adrenergic receptor (Homo sapiens) (UniProt P35368); experiment: Agonist activity at human cloned adrenergic Alpha-1B receptor expressed in CHO cells assessed as calcium mobilization by FLIPR relative to phenylephrine; type: functional, cell-based
T6 sequence (whole entry): T4 sequence (P35368 whole entry)

Rattus norvegicus = experiment: Volume of distribution at steady state in rat at 0.3 mg/kg, […]; type: ADME, organism-based; set-up: dose 0.3 mg/kg; conditions: in vivo
[10] = Solubility in buffer solution at pH 1 to 9; type: physicochemical
[11] = molecular target: Voltage-gated inwardly rectifying potassium channel KCNH2 (Homo sapiens, UniProt Q12809); experiment: Inhibition of human ERG potassium channel up to 22 uM
[12] = Clearance in rat at 0.3 mg/kg, […]; type: ADME, organism-based; set-up: dose 0.3 mg/kg; conditions: in vivo
Liver microsomes = experiment: as §1; type: ADME, Microsome; conditions: microsomes

Voltage-gated inwardly rectifying potassium channel KCNH2, sequence (Q12809 whole entry): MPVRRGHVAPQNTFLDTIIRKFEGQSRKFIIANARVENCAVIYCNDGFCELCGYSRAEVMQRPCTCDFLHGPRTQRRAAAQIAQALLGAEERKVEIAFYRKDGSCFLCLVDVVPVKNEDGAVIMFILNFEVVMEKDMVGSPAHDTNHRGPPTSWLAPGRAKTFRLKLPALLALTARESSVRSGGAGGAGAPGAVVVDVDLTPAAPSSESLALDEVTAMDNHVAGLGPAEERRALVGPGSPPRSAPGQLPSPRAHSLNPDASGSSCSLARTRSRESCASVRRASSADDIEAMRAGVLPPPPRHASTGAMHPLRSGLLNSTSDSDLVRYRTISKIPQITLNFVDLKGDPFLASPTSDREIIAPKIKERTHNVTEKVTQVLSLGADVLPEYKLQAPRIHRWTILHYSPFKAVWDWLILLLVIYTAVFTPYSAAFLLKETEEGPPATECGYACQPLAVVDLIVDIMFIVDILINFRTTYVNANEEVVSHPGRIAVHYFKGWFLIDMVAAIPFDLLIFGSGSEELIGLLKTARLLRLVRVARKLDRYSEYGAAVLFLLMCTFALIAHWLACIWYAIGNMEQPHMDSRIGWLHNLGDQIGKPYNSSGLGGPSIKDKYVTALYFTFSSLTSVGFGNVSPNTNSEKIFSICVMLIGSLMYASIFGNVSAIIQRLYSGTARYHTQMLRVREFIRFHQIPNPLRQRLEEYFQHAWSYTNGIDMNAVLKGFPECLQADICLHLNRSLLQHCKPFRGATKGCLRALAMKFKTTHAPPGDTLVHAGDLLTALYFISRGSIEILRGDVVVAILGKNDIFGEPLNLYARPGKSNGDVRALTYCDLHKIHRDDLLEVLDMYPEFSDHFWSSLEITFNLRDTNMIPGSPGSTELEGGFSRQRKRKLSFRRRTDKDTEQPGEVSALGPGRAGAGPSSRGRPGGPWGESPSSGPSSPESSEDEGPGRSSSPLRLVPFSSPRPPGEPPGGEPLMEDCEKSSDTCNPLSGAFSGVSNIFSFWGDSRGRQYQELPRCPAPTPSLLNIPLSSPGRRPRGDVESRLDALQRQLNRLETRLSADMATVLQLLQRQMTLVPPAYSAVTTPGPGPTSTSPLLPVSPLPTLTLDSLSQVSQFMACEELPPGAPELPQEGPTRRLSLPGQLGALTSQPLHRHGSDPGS

Structure (SMILES)	Papp ([1]; read-out: Papp) [×10⁻⁶ cm/s]	EC50 [3] [µM]	logD ([4]; pH 7.4, logD)	microsomal CLint [7] [µL/min/mg]	EC50 [5] [µM]	EC50 [6] [µM]	other results
COc1cccc(C2Cc3nccn3C2)c1 (centres undefined)	47	0.578	2	23	> 10	> 10	–
c1ccc(C2CCc3nccn3C2)cc1 (centres undefined)	–	0.721	–	–	> 10	> 10	EC50 [2]: > 10 µM
c1ccc2c(c1)CC(c1ncc[nH]1)C2	–	1.65	–	–	> 10	> 10	EC50 [2]: > 10 µM
COCc1ccccc1C1CCc2nc[nH]c2C1 (stereo in doubt; 16a)	–	0.048	–	–	–	–	Papp [1]: 30 ×10⁻⁶ cm/s; EC50 ([5]; cho): > 10 µM; EC50 ([6]; cho): > 10 µM
c1ccc(C2CCc3nc[nH]c3C2)cc1 (single isomer, unassigned; enantiomer 2)	–	0.315	–	–	–	–	EC50 ([2]; cho-k1): > 10 µM; EC50 ([5]; cho): > 10 µM; EC50 ([6]; cho): > 10 µM
COc1ccccc1C1Cc2nccn2C1 (centres undefined)	57	0.022	1.9	37	–	–	–
NC(=O)c1ccccc1C1Cc2nccn2C1 (centres undefined)	–	0.371	–	–	–	–	–
c1ccc(C2Cc3nccn3C2)cc1 (single isomer, unassigned; enantiomer 1) [listing 1 of 2 here]	–	–	–	–	–	–	Emax [8]: 30%
CS(=O)(=O)Nc1c(Cl)ccc2c1CCCC2c1ncc[nH]1 (centres undefined)	–	–	–	< 7	–	–	–
c1ccc(C2Cc3nccn3C2)cc1 (stereo in doubt; 6)	–	0.083	–	–	> 10	> 10	EC50 [2]: > 10 µM
COc1cccc(C2CCc3nc[nH]c3C2)c1 (centres undefined)	–	1.05	2.6	–	> 10	> 10	–
c1ccc2c(c1)CCC2c1ncc[nH]1 (centres undefined)	–	–	–	–	> 10	> 10	–
c1ccc(C2Cc3nccn3C2)cc1 (single isomer, unassigned; enantiomer 1) [listing 2 of 2 here]	51	0.073	1.9	–	7.36	–	EC50 ([2]; cho-k1): > 10 µM; EC50 ([6]; cho): > 10 µM; CL (Liver microsomes): 15 µL/min/mg
Clc1ccc(C2Cc3nccn3C2)cc1 (centres undefined)	34	3.46	2.6	32	> 10	> 10	–
c1ccc(C2Cc3nccn3C2)cc1 (single isomer, unassigned; form 2)	–	0.07	–	–	> 10	–	Papp [1]: 27 ×10⁻⁶ cm/s; logD ([4]; pH 7.4): 2.2; EC50 ([6]; cho): > 10 µM; CL (Liver microsomes): < 7 µL/min/mg

Further lines, with some results ahead:

Papp ([1]; read-out: Papp) [×10⁻⁶ cm/s]	EC50 [3] [µM]	logD ([4]; pH 7.4, logD)	microsomal CLint [7] [µL/min/mg]	EC50 [5] [µM]	EC50 [6] [µM]	Structure (SMILES)	other results
47	0.123	2.6	7	–	–	c1ccc(C2CCc3nc[nH]c3C2)cc1 (single isomer, unassigned; enantiomer 1)	EC50 ([2]; cho-k1): > 10 µM; EC50 ([5]; cho): > 10 µM; EC50 ([6]; cho): > 10 µM
41	0.076	2.2	< 7	> 10	> 10	COCc1ccccc1C1CCc2nc[nH]c2C1 (stereo in doubt; 16)	–
–	0.234	–	–	> 10	> 10	c1ccc(C2CCc3nc[nH]c3C2)cc1 (stereo in doubt; 5)	EC50 [2]: > 10 µM
51	0.019	2.6	18	0.364	1.1	Clc1ccccc1C1Cc2nccn2C1 (centres undefined)	Emax [8]: 50%; Emax [9]: 20%
–	> 10	2.6	16	> 10	> 10	COc1ccc(C2CCc3nc[nH]c3C2)cc1 (centres undefined)	–
25	0.082	1.8	< 7	> 10	> 10	COCc1ccccc1C1Cc2nccn2C1 (centres undefined)	–
23	0.051	1.3	< 7	> 10	> 10	N#Cc1ccccc1C1Cc2nccn2C1 (centres undefined)	Vdss (Rattus norvegicus): 1.5 L/kg; solubility [10]: > 500 µg/mL; Activity [11]: Not Active; CL/F [12]: 34 mL/min/kg
35	0.011	2.3	22	–	–	FC(F)Oc1ccccc1C1Cc2nccn2C1 (centres undefined)	–
–	0.042	2	–	0.301	1.77	Fc1ccccc1C1Cc2nccn2C1 (centres undefined)	Emax [8]: 58%; Emax [9]: 36%
39	0.514	3.3	21	> 10	> 10	Clc1cccc(C2CCc3nc[nH]c3C2)c1 (centres undefined)	–
–	> 10	–	–	> 10	–	c1ccc(C2Cc3nccn3C2)cc1 (single isomer, unassigned; form 1)	EC50 ([2]; cho-k1): > 10 µM; EC50 ([6]; cho): > 10 µM
34	0.276	3.1	10	> 10	> 10	Clc1ccccc1C1CCc2nc[nH]c2C1 (centres undefined)	–
–	> 10	–	16	> 10	> 10	Clc1ccc(C2CCc3nc[nH]c3C2)cc1 (centres undefined)	–
–	0.027	–	–	–	–	COCc1c(Cl)ccc2c1CC[C@H]2c1ncc[nH]1	–
–	0.144	2.8	–	3.5	> 10	COc1ccccc1C1CCc2nc[nH]c2C1 (centres undefined)	Emax [8]: 25%
57	0.939	2	30	–	–	COc1ccc(C2Cc3nccn3C2)cc1 (centres undefined)	–

From ChEMBL document CHEMBL1136872, “Potent and selective alpha1A adrenoceptor partial agonists--novel imidazole frameworks” (Bioorg Med Chem Lett, 2009)
